Values after ≈ are worked out from the molar mass of the structure shown. Where two headings read alike, the source gives them in different places.
Tests used:
[1] = tested on: HIV-1 (IIIB isolate); details: cited from earlier work
[2] = tested on: H9 T cell line; assay: Toxicity to uninfected H9 cells (cell count); type: cell-based
Procedure: (§1) The H9 T cell line was maintained in continuous culture with complete medium (RPMI and 10% fetal calf serum) at 5% CO2 and 37° C. and was used in experiments only when in log phase of growth. The cells were incubated with HIV-1 (IIIB isolate, TCID50 10^4 IU/mL, at a multiplicity of infection of 0.1-0.01 IU/cell) for 1 hour at 37° C. and 5% CO2. The cells then were washed thoroughly to remove unabsorbed virions and resuspended at 4×10^5 cells/mL in complete medium. Aliquots (1 mL) were placed in wells of 24-well culture plates containing an equal volume of test compound (diluted in the culture medium). After a four day incubation at 37° C., cell density of uninfected cultures was determined by counting cells in a Coulter counter to assess toxicity of the test compound. A p24 antigen ELISA assay was used to determine the level of virus released in the medium of the HIV-infected cultures. The p24 antigen assay uses an HIV-1 anti-p24 specific monoclonal antibody as the capture antibody coated on 96 well plates. Following a sample incubation period, rabbit serum containing antibodies for HIV-1 p24 is used to tag any p24 "captured" onto the microtiter well surface. […] The cut-off for the p24 ELISA assay is 12.5 pg/mL. P24 in the culture medium was quantitated against a standard curve containing known amounts of p24. The effective (EC50) and inhibitory concentrations (for anti-HIV activity and cytotoxicity, respectively) were determined.

[3] = tested on: HIV-1 (IIIB isolate); assay: microbe, parasite or virus in culture; type: cell-based; details: for Therapeutic Index / therapeutic index (TI): 5760 min
Procedure: as §1

[4] = target: T1, HIV reverse transcriptase associated RNase H (HIV-1 M:B_HXB2R, UniProt P04585); assay: HIV reverse transcriptase associated RNase H activity; type: biochemical
T1 construct: cut from Gag-Pol polyprotein

[5] = target: T2, HIV-1 reverse transcriptase (Human immunodeficiency virus type 1 group M subtype B, UniProt P04585); assay: HIV-1 reverse transcriptase, DNA-dependent DNA polymerase associated activity; type: biochemical; set-up: HIV-1 reverse transcriptase was purified; made in house; host or cells: Escherichia coli JM 109 containing pKRT 2 (plasmid provided by W. C. Summers, Yale University); details: for inhibitory effect against RT-associated DNA polymerase activity: under certain conditions
Procedure: (§2) HIV-1 reverse transcriptase was purified using Escherichia coli JM 109 containing pKRT 2 kindly provided by W. C. Summers (Yale University).
(§3) Enzyme Assay. All reactions were developed in a total volume of 50 μl containing 50 mMTris HCl pH 7.8, 2 mM MgCl2, 100 μg/mL nuclease-free BSA, 1 mM dithiothreitol, 0.5 O.D.260 unit/mL of template-primer, and 330 nM of [^3 H]dNTP according to Cheng et al.

[6] = target: T2, HIV-1 reverse transcriptase; assay: HIV-1 reverse transcriptase, RNA-dependent DNA polymerase associated activity; type: biochemical; set-up: HIV-1 reverse transcriptase was purified; made in house; host or cells: Escherichia coli JM 109 containing pKRT 2 (plasmid provided by W. C. Summers, Yale University); details: for HIV-1 reverse transcriptase inhibitory activity: template-primer dependent, result in words; for IC50: mean ± standard deviation of three
Procedure: as §2, §3

[7] = tested on: chronically HIV-1 infected T cell line, ACH-2; assay: Virus expression in chronically HIV-1 infected T cell line ACH-2 (p24 ELISA); type: cell-based; details: 72 hours; for induction of virus expression: cultured alone; for alteration in the level of virus expression: in presence of PMA
Procedure: Data obtained by using chronically HIV-1 infected cell lines that are cultured with a test drug can give a sense of how these compounds may function in vivo if given to a latently HIV- infected individual. Therefore, compounds 4 and 5 were separately added for 72 hours to the chronically HIV-1 infected T cell line, ACH-2, and to the chronically HIV-1 infected promonocytic cell line, U1.
(§4) HIV-1 chronically infected T cell line, ACH-2, ^15 and HIV-1 chronically infected promonocytic cell line, U1 ^16 were continuously maintained in RPMI1640 with 10% fetal calf serum (FCS). For experiments, the cell lines were only used in log-phase of growth. Cells (1×10^6 cells/well) and either various concentrations of 4,5, AZT or media alone were added to 24-well plates in the presence or absence of PMA (10^-8 M). After 72 hours at 37° C. and 5% CO2, an aliquot of the cell-free supernatants was collected and analyzed for p24 antigen by ELISA.

[8] = tested on: chronically HIV-1 infected promonocytic cell line, U1; assay: Virus expression in chronically HIV-1 infected promonocytic U1 cells (p24 ELISA); type: cell-based; details: for induction of virus expression / alteration in the level of virus expression: 72 hours; for induction of virus expression: cultured alone; for alteration in the level of virus expression: in presence of PMA
Procedure: Therefore, compounds 4 and 5 were separately added for 72 hours to the chronically HIV-1 infected T cell line, ACH-2, and to the chronically HIV-1 infected promonocytic cell line, U1.
as §4

[9] = target: T2, HIV-1 reverse transcriptase; details: more with Poly(rC)-olig(dG) than with Poly(rA)-olig(dT); cited from earlier work
[10] = Homo sapiens, H9, Table I, cytotoxicity, uninfected H9 cells, read-out: IC50
[11] = Poly(rA)-poly(dT) as substrate, or Mg^+2 as divalent cation
[12] = Poly(rG)-poly(dC) as substrate, Mn^+2 (0.4 mM)
[13] = Poly(dA)-olig(dT) as template primer
[14] = Table II, template-primer printed poly(rA)-olig(dT)^10, mean ± standard deviation of three
[15] = template-primer poly(rA)-olig(dT)10
[16] = template-primer poly(rC)-olig(dG)12-18
[17] = Human immunodeficiency virus 1, H9, text, acutely infected H9 cells, read-out: EC50 (anti-HIV activity)
[18] = Human immunodeficiency virus 1, Lymphocyte, Table I, acutely infected H9 lymphocytes, read-out: EC50
[19] = Human immunodeficiency virus 1, Lymphocyte, Table IA, acutely infected H9 lymphocytes, read-out: EC50

SMILES	Therapeutic Index ([3]; Table I, IC50/EC50)	Therapeutic Index ([3]; Table IA, ratio IC50/EC50)	IC50 [2, 10]	inhibition of HIV RT associated RNase H activity [4, 11]	inhibition of HIV RT associated RNase H activity [4, 12]	inhibition of HIV RT associated RNase H activity ([4]; under certain conditions)	IC50 [5, 13]	IC50 [5, 14]	inhibitory effect against RT-associated DNA polymerase activity [5]	HIV-1 reverse transcriptase inhibitory activity [6]	IC50 [6, 15]	IC50 [6, 16]	induction of virus expression [7]	alteration in the level of virus expression [7]	therapeutic index (TI) [3]	EC50 [3, 17]	EC50 [3, 18]	EC50 [3, 19]	induction of virus expression [8]	alteration in the level of virus expression [8]	also measured
COc1c(OCc2ccccc2)c(OCc2ccccc2)cc(CO)c1-c1c(CO)cc(OCc2ccccc2)c(OCc2ccccc2)c1OC [Compound 2, 4,4',5,5'-tetrakis(benzyloxy)-6,6'-dimethoxy-2,2'-dihydroxymethyl biphenyl]	–	–	–	–	–	–	–	–	–	–	–	–	–	–	–	–	–	–	–	–	anti-HIV activity ([1]; parent compound, comparable to that of DDB): does possess anti-HIV activity
COC(=O)c1cc(OC)c2c(c1-c1c(C(=O)OC)cc(OC)c3c1OCO3)OCO2 [Compound 3, 4,4'-dimethoxy-5,6,5'6'-dimethylenedioxy-2,2'-dimethoxycarbonyl biphenyl, reference compound]	> 20	> 20	–	–	–	–	–	–	–	–	–	–	–	–	–	–	–	–	–	–	IC50 ([2]; Homo sapiens, H9): > 100 µg/mL; IC50 ([2]; T-cell): > 100 µg/mL; TI ([1]; background section): > 20; EC50 ([3]; Human immunodeficiency virus 1, IIIB, Lymphocyte): 5 µg/mL (≈ 12 µM)
COC(=O)c1cc(OC)c2c(c1-c1c3c(c(OC)c(Br)c1C(=O)OC)OCO3)OCO2 [Compound 4, 3-Bromo-4,4'-dimethoxy-5,6,5',6'-bimethylenedioxy-2,2'-dimethoxycarbonyl biphenyl]	> 190	190	> 100 µg/mL	no inhibition	almost equal potency	Potent inhibitory effects	56 nM	56 ± 3 nM	Potent inhibitory effects	template-primer HIV-1 reverse transcriptase inhibitory activity	4.5 ± 1 µM	2.2 ± 0.6 µM	no increase in the induction of virus expression	no alteration in the level of virus expression	190	0.52 µg/mL (≈ 1.05 µM)	0.52 µg/mL (≈ 1.05 µM)	0.52 µg/mL (≈ 1.05 µM)	no increase in the induction of virus expression	no alteration in the level of virus expression	IC50 ([2]; T-cell, Table IA, concentration that causes a 50% reduction in total cell number): 100 µg/mL (≈ 201 µM); p24 ([8]; +Media, 0.0064 μg/mL): 7 pg/mL; p24 ([8]; +Media, 0.032 μg/mL): 10 pg/mL; p24 ([8]; +Media, 0.16 μg/mL): 12 pg/mL; p24 ([8]; +Media, 0.8 μg/mL): 11 pg/mL; p24 ([8]; +Media, 4 μg/mL): 11 pg/mL; p24 ([8]; +Media, 20 μg/mL): 22 pg/mL; p24 ([8]; +PMA, 0.0064 μg/mL): 8,314 pg/mL; p24 ([8]; +PMA, 0.032 μg/mL): 7,200 pg/mL; p24 ([8]; +PMA, 0.16 μg/mL): 7,616 pg/mL; p24 ([8]; +PMA, 0.8 μg/mL): 8,774 pg/mL; p24 ([8]; +PMA, 4 μg/mL): 13,376 pg/mL; p24 ([8]; +PMA, 20 μg/mL): 10,746 pg/mL
COC(=O)c1c(Br)c(OC)c2c(c1-c1c3c(c(OC)c(Br)c1C(=O)OC)OCO3)OCO2 [Compound 5, 3,3'-Dibromo-4,4'-dimethoxy-5,6,5'6'-bimethylenedioxy-2,2'-dimethoxycarbonyl biphenyl]	> 480	> 480	> 100 µg/mL	no inhibition	almost equal potency	Potent inhibitory effects	48 nM	48 ± 4 nM	Potent inhibitory effects	template-primer HIV-1 reverse transcriptase inhibitory activity	1.9 ± 0.9 µM	11 ± 0.5 µM	no increase in the induction of virus expression	no alteration in the level of virus expression	> 480	0.23 µg/mL (≈ 0.399 µM)	0.23 µg/mL (≈ 0.399 µM)	0.23 µg/mL (≈ 0.399 µM)	no increase in the induction of virus expression	no alteration in the level of virus expression	IC50 ([2]; T-cell, Table IA, concentration that causes a 50% reduction in total cell number, read-out: IC50): > 100 µg/mL; p24 ([8]; +Media, 0.0064 μg/mL): 17 pg/mL; p24 ([8]; +Media, 0.032 μg/mL): 15 pg/mL; p24 ([8]; +Media, 0.16 μg/mL): 13 pg/mL; p24 ([8]; +Media, 0.8 μg/mL): 14 pg/mL; p24 ([8]; +Media, 4 μg/mL): 16 pg/mL; p24 ([8]; +Media, 20 μg/mL): 15 pg/mL; p24 ([8]; +PMA, 0.0064 μg/mL): 7,590 pg/mL; p24 ([8]; +PMA, 0.032 μg/mL): 8,320 pg/mL; p24 ([8]; +PMA, 0.16 μg/mL): 9,850 pg/mL; p24 ([8]; +PMA, 0.8 μg/mL): 11,482 pg/mL; p24 ([8]; +PMA, 4 μg/mL): 10,598 pg/mL; p24 ([8]; +PMA, 20 μg/mL): 10,131 pg/mL
Cc1ccnc2c1NC(=O)c1cccnc1N2C1CC1 [Nevarapine]	–	–	–	–	–	–	–	–	–	–	–	–	–	–	–	–	–	–	–	–	inhibitory activity using Poly(rC)-olig(dG) versus Poly(rA)-olig(dT) [9]: more inhibitory activity
